Reference: patent US20110152214A1, “SILK POLYMER-BASED ADENOSINE RELEASE: THERAPEUTIC POTENTIAL FOR EPILEPSY” (TRUSTEES OF TUFTS COLLEGE, priority 2008, published 2011)
Entries after “also recorded” stand apart in the source; their conditions may differ.

Legend:
fully kindled rats [1] = experiment: Experiment 1: suppression of kindled seizures by polymer-based adenosine release; type: in vivo, rat
Source text: Experiment 1: Four days after surgery, the animals were stimulated unilaterally six times every second or third day with a Grass S-88 stimulator (1-ms square-wave pulses of 5 V at 50-Hz frequency for 10 s, 30-min interval between stimulations; these stimulations corresponded to about 350 μA, whereas the afterdischarge thresholds before kindling were in the range of 115 μA). Behavioral seizures were scored according to the scale of Racine (Racine, 1978). The electroencephalogram (EEG) was recorded for periods of 1 min before and 5 min after application of each stimulating pulse using a Nervus EEG monitoring system. Stimulations on each day were discontinued whenever a stage 5 seizure on that day was reached. Eventually, all animals reacted with a stage 5 seizure at the first (and then only) daily stimulation. After three stage 5 seizures elicited by the first stimulation on three subsequent kindling-days animals were considered to be fully kindled (i.e. reproducibility of stage 5 seizure activity after stimulation). […] Only animals that fulfilled these stringent kindling criteria were used for the subsequent experiments. Polymers were implanted into these fully kindled animals. Implant recipients received one test-stimulation each on day 4, 6, 10, 14, 18, and 21 after polymer implantation and were then subjected to histological analysis. […]

fully kindled rats [2] = conditions: Boison et al. 2002; Güttinger et al. 2005; Huber et al. 2001; cited from earlier work
rat kindling model [3] = experiment: Experiment 2a: kindling on days 4, 6, 8, 11 after implantation, then DPCPX test; type: in vivo; conditions: 1 mg/kg, i.p., 30 min prior to stimulation, day twelve
Source text: Experiment 2: Polymer implantation (see below) was combined with electrode implantation (see above) in the same surgery. Experiment 2a: Kindling was initiated four days after polymer implantation with the animals receiving 6 kindling stimulations (1-ms square-wave pulses of 5 V at 50-Hz frequency for 10 sec, 30-min interval between stimulations) each on day 4, 6, 8, and 11 after implantation; this amounted to a total of 24 stimulations. […] Twenty-four (24) hr after this drug test all animals were stimulated again once before being sacrificed for histological analysis. Experiment 2b (FIG. 3): Kindling was initiated four days after polymer implantation with the animals receiving six kindling stimulations each on days 4, 5, 6, 7, and 8, after implantation; this amounted to a total of 30 stimulations. In these incompletely kindled adenosine-implant recipients further stimulations were suspended until adenosine release from the polymers had expired (from day eighteen onwards). Kindling stimulations were resumed on days 18, 19, 20, 21, and 22 after implantation (6 stimulations/day; total of 30 additional stimulations). Afterwards the animals were sacrificed for histological analysis. […]

rat kindling model [4] = type: in vivo
Description: Anesthesia was induced with 3% isoflurane, 67% N2O, 30% O2 and maintained with 1.5% isoflurane, 68.5% N2O, 30% O2, while rats (N=22) were placed in a Kopf stereotactic frame. […]
Four days after surgery, the animals were stimulated unilaterally six times every second or third day with a Grass S-88 stimulator (1-ms square-wave pulses of 5V at 50-Hz frequency for 10 sec; 30 min-interval between stimulations). Behavioral seizures were scored according to the scale of Racine (3(2) Neurosurg. 234-52 (1978)). […] The electroencephalogram (EEG) was recorded for periods of 1 min before and 5 min after application of each stimulating pulse using a Nervus EEG monitoring system. […]
Seizure scores were determined after each stimulation according to the scale of Racine (1978). […]

rat kindling model [5] = conditions: Silver et al., 1991; cited from earlier work

With `OC[C@H]1O[C@@H](n2cnc3c(NC4CCCC4)nc(Cl)nc32)[C@H](O)[C@@H]1O` [CCPA, 2-chloro-N(6)-cyclopentyladenosine] the “seizure response to test stimulation” value (fully kindled rats [1]; 3 mg/kg i.p., 30 min prior to test stimulation, before polymer implantation) was “complete seizure suppression”.

In the case of `CCCn1c(=O)c2[nH]c(C3CCCC3)nc2n(CCC)c1=O` [DPCPX, 8-cyclopentyl-1,3-dipropylxanthine], the “seizures elicited by DPCPX paired with kindling stimulations” value (fully kindled rats [2]) is listed as “readily elicits stage 5 seizures”, the “effect of DPCPX on seizure score in adenosine-releasing implant recipients” value (rat kindling model [3]) is listed as “failed to elicit control group-like seizures; also recorded: did not increase the seizure score; also recorded: failed to increase seizure scores” and the “seizure stage elicited in an ADO-polymer treated rat after DPCPX” value (fully kindled rats [1]; 1 mg/kg, i.p., 30 min after injection, day three) is listed as 5.

In the case of `Nc1ncnc2c1ncn2[C@@H]1O[C@H](CO)[C@@H](O)[C@H]1O` [adenosine], the “doses sufficient to suppress kindling” value (rat kindling model [4]; focal infrahippocampal release, from Table 3) is reported as “around 400 ng adenosine/day” and the “tolerability of high doses, gross behavioral changes” value (rat kindling model [4]; rat, in vivo) is reported as “well tolerated”.

For `NC(=O)N1c2ccccc2C=Cc2ccccc21` [carbamazepine], the “effect on kindling development / antiepileptogenesis” value (rat kindling model [5]) is given as “did not affect kindling development during the drug-phase”.
